The target of this assay is human dUTPase (Homo sapiens (Human), UniProt P33316). The assay is described as follows: Human dUTPase inhibitory effect: production of [5-3H]dUMP from [5-3H]dUTP, measured by HPLC with flow scintillation. The class given is biochemical. To be noted: [5-3H]dUMP production from [5-3H]dUTP, 37° C., 15 minutes. In a few lines: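 E. coli-expressed purified human dUTPase reacted with 1 μM dUTP stock containing [5-3H]dUTP in Tris pH 7.4, MgCl2, 2-mercaptoethanol and albumin, 15 min at 37° C; stopped by 1 min at 100° C. [5-3H]dUMP formed was separated by reversed-phase ion-pair HPLC and quantified by flow scintillation versus water control.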
Sequence of human dUTPase (P33316 94-252): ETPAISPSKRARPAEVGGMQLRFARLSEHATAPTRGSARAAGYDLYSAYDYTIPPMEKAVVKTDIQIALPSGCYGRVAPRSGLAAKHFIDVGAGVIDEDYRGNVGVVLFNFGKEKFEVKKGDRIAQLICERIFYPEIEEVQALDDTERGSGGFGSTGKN

Molecule `Cc1ccccc1C(NS(=O)(=O)CCCOCn1ccc(=O)[nH]c1=O)c1ccccc1` (centres unmarked) [Example 77, 3-((2,4-dioxo-3,4-dihydropyrimidin-1(2H)-yl)methoxy)-N-(phenyl(o-tolyl)methyl)propane-1-sulfonamide] returned a half-inhibitory concentration (IC50) of 5.69 µM.
`O=c1ccn(COCCCS(=O)(=O)NC(c2ccc(F)cc2)c2ccc(F)cc2)c(=O)[nH]1` [Example 78, N-(bis(4-fluorophenyl)methyl)-3-((2,4-dioxo-3,4-dihydropyrimidin-1(2H)-yl)methoxy)propane-1-sulfonamide] returned an IC50 of 2.58 µM.
For `O=c1ccn(COCCCS(=O)(=O)N2CCC[C@@H]2C(c2ccccc2)c2ccccc2)c(=O)[nH]1` [Example 79, (R)-1-((3-(2-benzhydrylpyrrolidin-1-ylsulfonyl)propoxy)methyl)pyrimidine-2,4(1H, 3H)-dione], it took 1.65 µM to reach half-maximal inhibition (IC50).
For `CC(C)C[C@@H](NS(=O)(=O)CCCOCn1ccc(=O)[nH]c1=O)C(O)(c1ccccc1)c1ccccc1` [Example 80, (R)-3-((2,4-dioxo-3,4-dihydropyrimidin-1(2H)-yl)methoxy)-N-(1-hydroxy-4-methyl-1,1-diphenylpentan-2-yl)propane-1-sulfonamide], 1.3 µM corresponded to half-maximal inhibition (IC50).
The same measure for `O=c1ccn(COCCCS(=O)(=O)NC2(c3ccccc3)CCCC2)c(=O)[nH]1` [Example 81, 3-((2,4-dioxo-3,4-dihydropyrimidin-1(2H)-yl)methoxy)-N-(1-phenylcyclopentyl)propane-1-sulfonamide]: 9.44 µM; for `CC[C@@H](NS(=O)(=O)CCCOCn1ccc(=O)[nH]c1=O)c1ccccc1` [Example 83, (R)-3-((2,4-dioxo-3,4-dihydropyrimidin-1(2H)-yl)methoxy)-N-(1-phenylpropyl)propane-1-sulfonamide]: 4.78 µM.
`C[C@@H](NS(=O)(=O)CCCOCn1ccc(=O)[nH]c1=O)c1cccc(F)c1` [Example 87, (R)-3-((2,4-dioxo-3,4-dihydropyrimidin-1(2H)-yl)methoxy)-N-(1-(3-fluorophenyl)ethyl)propane-1-sulfonamide] returned an IC50 of 7.13 µM.
The same measure for `O=c1ccn(COCCCS(=O)(=O)NC(c2ccccc2)c2cccc(F)c2)c(=O)[nH]1` (centres unmarked) [Example 93, 3-((2,4-dioxo-3,4-dihydropyrimidin-1(2H)-yl)methoxy)-N-((3-fluorophenyl)(phenyl)methyl)propane-1-sulfonamide]: 4.63 µM; for `O=c1ccn(Cc2ccc(S(=O)(=O)NC(c3ccccc3)c3ccccc3)cc2)c(=O)[nH]1` [Example 96, N-benzhydryl-4-((2,4-dioxo-3,4-dihydropyrimidin-1(2H)-yl)methyl)benzenesulfonamide]: 4.62 µM; for `CC[C@@H](NS(=O)(=O)c1ccc(Cn2ccc(=O)[nH]c2=O)cc1)c1ccc(F)c(OCC2CC2)c1` [Example 97, (R)—N-(1-(3-(cyclopropylmethoxy)-4-fluorophenyl)propyl)-4-((2,4-dioxo-3,4-dihydropyrimidin-1(2H)-yl)methyl)benzenesulfonamide]: 0.58 µM.
The same measure for `C[C@@H](NS(=O)(=O)CCCn1ccc(=O)[nH]c1=O)c1ccc(F)c(OCC2CC2)c1` [Example 98, (R)—N-(1-(3-(cyclopropylmethoxy)-4-fluorophenyl)ethyl)-3-(2,4-dioxo-3,4-dihydropyrimidin-1(2H)-yl)propane-1-sulfonamide]: 0.66 µM; for `CC[C@@](O)(CNS(=O)(=O)CCCn1ccc(=O)[nH]c1=O)c1ccc(F)c(OC2CCCC2)c1` [Example 99, (S)—N-(2-(3-(cyclopentyloxy)-4-fluorophenyl)-2-hydroxybutyl)-3-(2,4-dioxo-3,4-dihydroxypyrimidin-1(2H)-yl)propane-1-sulfonamide]: 1.81 µM.
Then `C[C@@H](NS(=O)(=O)CC/C=C/Cn1ccc(=O)[nH]c1=O)c1ccc(F)c(OCC2CC2)c1` [Example 100, (R,E)-N-(1-(3-(cyclopropylmethoxy)-4-fluorophenyl)ethyl)-5-(2,4-dioxo-3,4-dihydropyrimidin-1(2H)-yl)pent-3-ene-1-sulfonamide], with 0.04 µM; and `C[C@@H](NS(=O)(=O)CCCCCn1ccc(=O)[nH]c1=O)c1ccc(F)c(OCC2CC2)c1` [Example 101, (R)—N-(1-(3-(cyclopropylmethoxy)-4-fluorophenyl)ethyl)-5-(2,4-dioxo-3,4-dihydropyrimidin-1(2H)-yl)pentane-1-sulfonamide], with 0.07 µM.
Turning to `O=c1ccn(CCCCCS(=O)(=O)NCc2cccc(OCC3CC3)c2)c(=O)[nH]1` [Example 103, N-(3-(cyclopropylmethoxy)benzyl)-5-(2,4-dioxo-3,4-dihydropyrimidin-1(2H)-yl)pentane-1-sulfonamide], the midpoint of inhibition, the IC50, lay at 0.52 µM.
The same measure for `C[C@@H](NS(=O)(=O)CCCn1ccc(=O)[nH]c1=O)c1cccc(OC2CCCC2)c1` [Example 104, (R)—N-(1-(3-(cyclopentyloxy)phenyl)ethyl)-3-(2,4-dioxo-3,4-dihydropyrimidin-1(2H)-yl)propane-1-sulfonamide]: 1.46 µM; for `C[C@@H](NS(=O)(=O)CC/C=C/Cn1ccc(=O)[nH]c1=O)c1cccc(OC2CCCC2)c1` [Example 105, (R,E)-N-(1-(3-(cyclopentyloxy)phenyl)ethyl)-5-(2,4-dioxo-3,4-dihydropyrimidin-1(2H)-yl)pent-3-ene-1-sulfonamide]: 0.17 µM; for `C[C@@H](NS(=O)(=O)CCCCCn1ccc(=O)[nH]c1=O)c1cccc(OC2CCCC2)c1` [Example 106, (R)—N-(1-(3-(cyclopentyloxy)phenyl)ethyl)-5-(2,4-dioxo-3,4-dihydropyrimidin-1(2H)-yl)pentane-1-sulfonamide]: 0.12 µM.
Then `C[C@@H](NS(=O)(=O)CCCn1ccc(=O)[nH]c1=O)c1cccc(OCC(F)F)c1` [Example 107, (R)—N-(1-(3-(2,2-difluoroethoxy)phenyl)ethyl)-3-(2,4-dioxo-3,4-dihydropyrimidin-1(2H)-yl)propane-1-sulfonamide], with 1.72 µM; and `C[C@@H](NS(=O)(=O)CCCn1ccc(=O)[nH]c1=O)c1cccc(OCC2CC2)c1` [Example 108, (R)—N-(1-(3-(cyclopropylmethoxy)phenyl)ethyl)-3-(2,4-dioxo-3,4-dihydropyrimidin-1(2H)-yl)propane-1-sulfonamide], with 1.71 µM.
`C[C@@H](NS(=O)(=O)CCCCCn1ccc(=O)[nH]c1=O)c1cccc(OCC2CC2)c1` [Example 109, (R)—N-(1-(3-(cyclopropylmethoxy)phenyl)ethyl)-5-(2,4-dioxo-3,4-dihydropyrimidin-1(2H)-yl)pentane-1-sulfonamide]: the IC50 is 0.12 µM.
The same measure for `C[C@@H](NS(=O)(=O)CC/C=C/Cn1ccc(=O)[nH]c1=O)c1cccc(OCC2CC2)c1` [Example 110, (R,E)-N-(1-(3-(cyclopropylmethoxy)phenyl)ethyl)-5-(2,4-dioxo-3,4-dihydropyrimidin-1(2H)-yl)pent-3-ene-1-sulfonamide]: 0.05 µM.
For the molecule `O=c1ccn(CCCS(=O)(=O)NC(c2ccccc2)c2ccccc2)c(=O)[nH]1` [Example 111, N-benzhydryl-3-(2,4-dioxo-3,4-dihydropyrimidin-1(2H)-yl)propane-1-sulfonamide], the half-inhibitory concentration (IC50) was 8.27 µM.

For orientation: IC50 means the point on the concentration scale where inhibition reaches its midpoint.

Values taken from patent publication US8530490B2, “Uracil compound or salt thereof having human deoxyuridine triphosphatase inhibitory activity” (Taiho Pharmaceutical Co., Ltd., priority 2008, dated 2013).
